Experimental data published in ChEMBL document CHEMBL5291721, “A preclinical secondary pharmacology resource illuminates target-adverse drug reaction associations of marketed drugs” (Nat Commun, 2023).
Where “and” joins values, the source holds several entries; their conditions need not be identical. Equal values may be shown once.

Key:
[1] = biological target: T1, Muscarinic acetylcholine receptor M2 (Homo sapiens, UniProt P08172); assay type: functional, cell-based
T1 sequence (P08172 whole entry): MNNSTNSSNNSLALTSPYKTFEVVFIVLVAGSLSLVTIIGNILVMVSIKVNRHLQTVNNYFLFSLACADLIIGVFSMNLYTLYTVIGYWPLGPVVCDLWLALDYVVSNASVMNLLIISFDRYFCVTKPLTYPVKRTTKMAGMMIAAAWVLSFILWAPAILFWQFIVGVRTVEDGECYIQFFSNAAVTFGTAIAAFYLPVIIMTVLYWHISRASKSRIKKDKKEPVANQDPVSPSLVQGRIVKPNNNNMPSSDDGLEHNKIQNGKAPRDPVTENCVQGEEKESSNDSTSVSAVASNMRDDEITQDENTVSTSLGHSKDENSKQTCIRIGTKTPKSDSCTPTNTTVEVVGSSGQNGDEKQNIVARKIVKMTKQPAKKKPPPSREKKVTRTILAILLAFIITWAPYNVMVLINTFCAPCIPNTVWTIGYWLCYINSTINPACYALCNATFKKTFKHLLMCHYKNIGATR

[2] = biological target: Cannabinoid receptor 1 (Homo sapiens, UniProt P21554); assay type: functional, cell-based
Sequence of Cannabinoid receptor 1 (P21554 whole entry): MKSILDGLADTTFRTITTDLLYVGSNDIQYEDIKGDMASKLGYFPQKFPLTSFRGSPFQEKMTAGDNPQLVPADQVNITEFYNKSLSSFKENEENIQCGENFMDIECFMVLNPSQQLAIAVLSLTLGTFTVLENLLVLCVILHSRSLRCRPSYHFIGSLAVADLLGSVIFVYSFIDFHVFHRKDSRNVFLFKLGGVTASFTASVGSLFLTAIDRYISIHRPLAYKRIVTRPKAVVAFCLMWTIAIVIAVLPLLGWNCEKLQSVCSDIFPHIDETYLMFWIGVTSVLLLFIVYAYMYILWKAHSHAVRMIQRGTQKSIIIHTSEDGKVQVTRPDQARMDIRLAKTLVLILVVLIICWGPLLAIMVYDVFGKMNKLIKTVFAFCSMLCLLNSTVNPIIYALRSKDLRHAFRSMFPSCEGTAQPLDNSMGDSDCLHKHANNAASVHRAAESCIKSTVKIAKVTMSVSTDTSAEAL

[3] = biological target: T2, Muscarinic acetylcholine receptor M1 (Homo sapiens, UniProt P11229); assay type: functional
T2 sequence (P11229 whole entry): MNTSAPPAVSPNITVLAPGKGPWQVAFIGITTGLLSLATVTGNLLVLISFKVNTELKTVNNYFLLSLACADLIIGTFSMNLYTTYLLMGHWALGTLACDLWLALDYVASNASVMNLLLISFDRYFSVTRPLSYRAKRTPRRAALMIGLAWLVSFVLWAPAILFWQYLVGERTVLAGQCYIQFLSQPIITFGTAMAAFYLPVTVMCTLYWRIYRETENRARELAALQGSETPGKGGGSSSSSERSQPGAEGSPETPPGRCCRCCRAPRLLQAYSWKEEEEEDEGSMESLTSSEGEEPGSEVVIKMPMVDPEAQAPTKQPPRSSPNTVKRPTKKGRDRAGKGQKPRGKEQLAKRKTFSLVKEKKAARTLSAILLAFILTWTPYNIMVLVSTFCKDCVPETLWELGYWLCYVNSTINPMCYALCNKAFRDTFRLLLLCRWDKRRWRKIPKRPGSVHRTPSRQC

[4] = biological target: Histamine H1 receptor (Homo sapiens, UniProt P35367)
Sequence of Histamine H1 receptor (P35367 whole entry): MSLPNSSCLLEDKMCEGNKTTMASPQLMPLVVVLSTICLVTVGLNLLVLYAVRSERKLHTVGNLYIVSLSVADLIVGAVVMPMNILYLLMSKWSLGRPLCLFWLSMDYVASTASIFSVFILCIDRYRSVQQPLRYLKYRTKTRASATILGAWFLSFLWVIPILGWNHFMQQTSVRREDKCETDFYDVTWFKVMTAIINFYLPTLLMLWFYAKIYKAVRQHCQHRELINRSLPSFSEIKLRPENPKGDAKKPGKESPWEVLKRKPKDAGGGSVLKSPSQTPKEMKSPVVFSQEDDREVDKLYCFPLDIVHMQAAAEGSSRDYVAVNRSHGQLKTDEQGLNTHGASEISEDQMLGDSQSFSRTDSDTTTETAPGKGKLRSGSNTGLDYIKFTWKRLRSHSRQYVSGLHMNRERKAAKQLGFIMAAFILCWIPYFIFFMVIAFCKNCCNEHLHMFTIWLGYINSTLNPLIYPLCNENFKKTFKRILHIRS

[5] = biological target: T2, Muscarinic acetylcholine receptor M1; assay type: functional, cell-based
[6] = biological target: D(1A) dopamine receptor (Homo sapiens, UniProt P21728)
Sequence of D(1A) dopamine receptor (P21728 whole entry): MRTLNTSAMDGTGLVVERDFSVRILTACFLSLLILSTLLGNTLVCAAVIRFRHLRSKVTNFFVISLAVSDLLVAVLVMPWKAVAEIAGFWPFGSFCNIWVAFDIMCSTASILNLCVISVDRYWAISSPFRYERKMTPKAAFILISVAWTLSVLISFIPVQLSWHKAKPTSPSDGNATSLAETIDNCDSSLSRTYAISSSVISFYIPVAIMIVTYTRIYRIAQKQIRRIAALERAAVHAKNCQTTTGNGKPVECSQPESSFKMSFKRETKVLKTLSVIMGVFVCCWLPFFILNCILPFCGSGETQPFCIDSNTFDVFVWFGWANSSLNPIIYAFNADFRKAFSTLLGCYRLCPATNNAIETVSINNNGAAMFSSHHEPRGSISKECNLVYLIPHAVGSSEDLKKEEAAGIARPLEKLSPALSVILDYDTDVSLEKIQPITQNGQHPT

[7] = biological target: T3, Alpha-1A adrenergic receptor (Homo sapiens, UniProt P35348); assay type: functional, cell-based
T3 sequence (P35348 whole entry): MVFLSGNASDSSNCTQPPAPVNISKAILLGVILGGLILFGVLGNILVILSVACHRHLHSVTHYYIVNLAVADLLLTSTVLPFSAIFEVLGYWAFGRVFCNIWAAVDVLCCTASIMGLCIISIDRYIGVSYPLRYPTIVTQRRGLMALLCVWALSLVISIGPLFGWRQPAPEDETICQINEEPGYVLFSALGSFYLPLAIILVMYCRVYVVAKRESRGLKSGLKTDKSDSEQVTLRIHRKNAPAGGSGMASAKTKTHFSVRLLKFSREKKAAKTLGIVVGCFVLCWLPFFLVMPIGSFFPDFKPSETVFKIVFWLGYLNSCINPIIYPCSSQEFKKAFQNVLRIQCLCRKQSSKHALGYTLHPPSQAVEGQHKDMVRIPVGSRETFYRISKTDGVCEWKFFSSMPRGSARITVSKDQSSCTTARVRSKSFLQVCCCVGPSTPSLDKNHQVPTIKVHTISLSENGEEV

[8] = biological target: Prothrombin (Homo sapiens, UniProt P00734); assay type: functional
Note: assay procedure not described here.

| Structure (SMILES) | AC50 [1] [µM] | AC50 [2] [µM] | AC50 [3] | AC50 [4] [µM] | AC50 [5] [µM] | AC50 [6] [µM] | AC50 [7] [µM] | AC50 [8] [µM] |
| --- | --- | --- | --- | --- | --- | --- | --- | --- |
| CCCCC1C(=O)N(c2ccccc2)N(c2ccccc2)C1=O [PHENYLBUTAZONE] | > 10 | – | – | – | – | – | – | – |
| C[C@]12CC[C@@H]3c4ccc(O)cc4C[C@@H](CCCCCCCCC[S+]([O-])CCCC(F)(F)C(F)(F)F)[C@H]3[C@@H]1CC[C@@H]2O (stereo partly drawn) [FULVESTRANT] | > 30 | > 30 | > 30 µM | > 30 | – | – | – | – |
| C=CCSCC1Nc2cc(Cl)c(S(N)(=O)=O)cc2S(=O)(=O)N1 (stereo not drawn) [ALTHIAZIDE] | – | – | – | – | > 30 | > 30 | > 30 | > 30 |
| O=[N+]([O-])c1ccc(O)c2ncccc12 [NITROXOLINE] | > 30 | > 30 | 8.5 µM | 4.9 | – | > 30 | – | > 30 |
| CC1OC2(CS1)CN1CCC2CC1 (stereo not drawn) [CEVIMELINE] | – | – | > 30 µM | > 30 | – | – | – | – |
| Oc1ccc2c(c1)CC[C@H](c1ccccc1)[C@@H]2c1ccc(OCCN2CCCC2)cc1 [LASOFOXIFENE] | – | > 30 | 11 µM | 20 | – | – | – | – |
| C[C@H](Cc1ccc(O)c(O)c1)[C@@H](C)Cc1ccc(O)c(O)c1 [MASOPROCOL] | > 30 | > 30 | > 10 µM and 29 µM and > 30 µM | > 30 | – | – | – | – |
| CN(C)CCOC(c1ccccc1)c1ccc(Br)cc1 (stereo not drawn) [BROMODIPHENHYDRAMINE] | – | – | – | – | > 30 | 2.95 | > 30 | > 30 |
| NC(=O)OCC(O)COc1ccc(Cl)cc1 (stereo not drawn) [CHLORPHENESIN CARBAMATE] | – | – | – | – | > 30 | > 30 | > 30 | > 30 |
| CC(C)COCC(CN(Cc1ccccc1)c1ccccc1)N1CCCC1 (stereo not drawn) [BEPRIDIL] | > 30 | – | 23 µM | 8.6 | – | – | – | – |
| C[C@]12CCC(=O)C(O)=C1CC[C@@H]1[C@@H]2CC[C@]2(C)C(=O)CC[C@@H]12 [FORMESTANE] | > 30 | > 30 | > 30 µM | > 30 | – | – | – | – |
| CCC(C)C1(CC)C(=O)NC(=O)NC1=O (stereo not drawn) [BUTABARBITAL] | > 30 | > 30 | > 30 µM | > 30 | – | – | – | – |
| CN(C)CCCNc1c2ccccc2nc2cccc([N+](=O)[O-])c12 [NITRACRINE] | 16 | > 30 | 11 µM | 14 | – | – | – | – |
| CC(C)(C)C(=O)OCC(=O)[C@H]1CC[C@H]2[C@@H]3CCC4=CC(=O)CC[C@]4(C)[C@H]3CC[C@]12C [DESOXYCORTICOSTERONE PIVALATE] | > 10 | > 30 | > 10 µM | > 10 | – | – | – | – |
| CNCc1ccc(-c2[nH]c3cc(F)cc4c3c2CCNC4=O)cc1 [RUCAPARIB] | > 10 | – | > 10 µM | > 10 | – | – | – | – |
| Cc1noc(NS(=O)(=O)c2ccc(N)cc2)c1C [SULFISOXAZOLE] | > 10 | > 30 | – | – | – | – | – | – |
| Cc1cc2cc3c(C)cc(=O)oc3c(C)c2o1 [TRIOXSALEN] | > 10 | – | – | – | – | – | – | – |
| CC(=O)O[C@]1(C(C)=O)CC[C@H]2[C@@H]3C=C(Cl)C4=CC(=O)CC[C@]4(C)[C@H]3CC[C@@]21C [CHLORMADINONE ACETATE] | – | – | – | – | – | > 30 | > 30 | > 30 |
| CC(N)Cc1ccc(O)cc1 (stereo not drawn) [HYDROXYAMPHETAMINE] | – | – | – | – | > 30 | > 30 | > 30 | > 30 |
| C=CCNc1nc(NCC=C)nc(N2CCN(C(c3ccc(F)cc3)c3ccc(F)cc3)CC2)n1 [ALMITRINE] | > 30 | – | > 30 µM | > 30 | – | – | – | – |
| C/N=C(\NC)NCc1ccccc1 [BETHANIDINE] | > 30 | > 30 | > 30 µM | > 30 | – | – | – | – |
| CC(C)[C@H](N)C(=O)OCC(CO)OCn1cnc2c(=O)nc(N)[nH]c21 (stereo partly drawn) [VALGANCICLOVIR] | > 30 | – | > 30 µM | > 30 | – | – | – | – |

| Structure (SMILES) | AC50 [1] [µM] | AC50 [2] [µM] | AC50 [3] | AC50 [4] [µM] | AC50 [5] [µM] | AC50 [6] [µM] | AC50 [7] [µM] | AC50 [8] [µM] |
| --- | --- | --- | --- | --- | --- | --- | --- | --- |
| CC(=O)N[C@@H](CS)C(=O)O [ACETYLCYSTEINE] | > 30 | > 30 | > 30 µM | > 30 | – | – | – | – |
| CC(C(=O)O)c1ccc(-c2ccccc2)c(F)c1 (stereo not drawn) [FLURBIPROFEN] | > 10 | – | – | – | – | > 30 | > 30 | > 30 |
| CCC1(c2ccccc2)CCC(=O)NC1=O (stereo not drawn) [GLUTETHIMIDE] | > 10 | > 30 | > 10 µM | > 10 | – | – | – | – |
| COc1cc(N)c(Cl)cc1C(=O)NC1CCN(Cc2ccccc2)CC1 [CLEBOPRIDE] | > 30 | > 30 | > 30 µM | > 30 | – | – | – | – |
| Nc1ncn([C@H]2C[C@H](O)[C@@H](CO)O2)c(=O)n1 [DECITABINE] | > 30 | – | > 30 µM | > 30 | – | – | – | – |
| NCC(CC(=O)O)c1ccccc1 (stereo not drawn) [PHENIBUT] | – | – | – | – | > 30 | > 30 | > 30 | > 30 |
| Cc1cccc(N2CC(CO)OC2=O)c1 (stereo not drawn) [TOLOXATONE] | > 30 | > 30 | > 30 µM | > 30 | – | – | – | – |
| CC(C(=O)O)c1ccc(CC2CCCC2=O)cc1 (stereo not drawn) [LOXOPROFEN] | > 30 | > 30 | – | – | – | – | – | – |
| C=C1CC[C@H](O)C/C1=C/C=C1\CCC[C@]2(C)[C@@H]([C@H](C)/C=C/[C@H](C)C(C)C)CC[C@@H]12 [ERGOCALCIFEROL] | – | – | – | – | – | > 30 | – | > 30 |
| Cc1cc(C(C)(C)C)cc(C)c1CC1=NCCN1 [XYLOMETAZOLINE] | 12.1 | > 30 | 14.4 µM | > 30 | – | – | 0.0003 | – |
| C#C[C@]1(OC(C)=O)CC[C@H]2[C@@H]3CCC4=C/C(=N/O)CC[C@@H]4[C@H]3CC[C@@]21CC [NORGESTIMATE] | > 30 | > 30 | > 30 µM | > 30 | – | – | – | – |
| COCC1=C(C(=O)O)N2C(=O)[C@@H](NC(=O)/C(=N\OC)c3csc(N)n3)[C@H]2SC1 [CEFPODOXIME] | > 30 | > 30 | > 30 µM | > 30 | – | – | – | – |
| Clc1ccc2c(N3CCN(CCCN4CCN(c5ccnc6cc(Cl)ccc56)CC4)CC3)ccnc2c1 [PIPERAQUINE] | > 30 | > 30 | 3.8 µM | > 30 | – | – | – | – |
| CCOC(=O)c1cncn1[C@H](C)c1ccccc1 [ETOMIDATE] | > 10 | > 30 | > 10 µM | > 10 | – | – | – | – |
| O=C(O)c1cn(C2CC2)c2cc(N3CCNCC3)c(F)cc2c1=O [CIPROFLOXACIN] | – | – | – | – | – | – | – | > 30 |
| Clc1ccc(C(Cn2ccnc2)OCc2ccsc2Cl)c(Cl)c1 (stereo not drawn) [TIOCONAZOLE] | > 30 | – | > 30 µM | > 30 | – | – | – | – |
| CCOC(=O)C1=C[C@]2(CC)CCCN3CCc4c(n1c1ccccc41)[C@@H]32 [VINPOCETINE] | – | > 30 | > 30 µM | > 30 | – | – | – | – |
| CCC(=O)O[C@H]1CC[C@H]2[C@@H]3CCC4=CC(=O)CC[C@]4(C)[C@H]3CC[C@]12C [TESTOSTERONE PROPIONATE] | > 10 | > 30 | > 10 µM | > 10 | – | – | – | – |
| CCC(C)C(CC)C(N)=O (stereo not drawn) [VALNOCTAMIDE] | > 30 | > 30 | > 30 µM | > 30 | – | – | – | – |
| CC1(C)S[C@@H]2[C@H](NC(=O)[C@H](N)c3ccccc3)C(=O)N2[C@H]1C(=O)OCOC(=O)[C@@H]1N2C(=O)C[C@H]2S(=O)(=O)C1(C)C [SULTAMICILLIN] | > 30 | > 30 | > 30 µM | > 30 | – | – | – | – |
| COc1ccc(CN(CCN(C)C)c2ccccn2)cc1 [PYRILAMINE] | – | – | – | – | – | 24.2 | > 30 | > 30 |
